Entries after “also recorded” stand apart in the source; their conditions may differ. Marks after values point to notes of the source that are not given here.
Assays:
[1] = Example 1: body weight, body fat and feed intake of mice fed feed supplemented with 0.5% test compound; format: in vivo, CDF1 male mice; conditions: ratio relative to the non-treated control group, CDF1 mice
Experimental: (§1) 5-Sitosten-3-one was prepared according to the method of Parish (Parish, E. J., et al., Synthetic Communication, 22, pp.2839-2847, 1992) by using β-sitosterol (Tokyo Chemical Industry Co., Ltd.) as a starting material and used in the experiments. The content ratio of 24-ethyl and 24-methyl compounds in the synthesized product was 6.5:3.5. As experimental animals, six CDF1 male mice (5-week old, Charles River Japan Inc.) were used in each experimental group. The animals were fed in aluminum cages for mice, and allowed to feed and water ad libitum. The animals were fed for 2 weeks under feeding conditions at a temperature of 24±1° C. and a relative humidity of 55±5%, where light and darkness were controlled to change every 12 hours, and each cage and floor mat (white flakes) were exchanged twice a week.
(§2) Modified AIN (Oriental Yeast Co.) was used as basic feed and mixed with 0.5% 5-sitosten-3-one to prepare test feeds. A feed used as a positive control was prepared by adding 0.5% of 4-cholesten-3-one (Japanese Patent Unexamined Publication No. Hei 5-170651/1993) to the basic feed. Non-treated mice as a control were fed solely with the basic feed. The basic feed was composed of 22.8% crude protein, 54.1% carbohydrates, 6.0% lipids, 4.9% fibers, 2.9% ash, and 8.7% water, and its calorie was 1,523 kJ. The feed was stored at 4° C. after preparation, and a fresh feed was supplied every day.
(§3) The animals were weighed at given intervals of time, and the average values and standard errors of the experimental groups were determined. In addition, feed consumptions were measured at given intervals of time and daily averages per mouse were determined. The animals were observed every day. After the end of the feeding, the animals were anesthetized to death with carbon dioxide gas, and bloods were collected from the vena cava to obtain serums. The animals were autopsied, and the brains, lungs, hearts, livers, spleens, kidneys, testis, adrenals and intraperitoneal fat were examined by the naked eye and weighed. As to serum lipid, neutral fats were measured by using a clinical test kit based on the enzyme method (Triglyceride-E Test, Wako Pure Chemicals Industries Co., Ltd.), and total cholesterol and cholestanol were measured by the method of Kasama (T. Kasama, et al., J. Chromatogr., 400, 241, 1987) with modifications, where the amount of benzoyl chloride was increased by 10 times, the reaction time was doubled, and the measurement was performed by using a high performance liquid chromatography system. Significant differences were determined by t-test for body weights and serum lipids on the basis of the non-treated control mice.

[2] = Example 1: serum lipids and serum metabolites of mice fed feed supplemented with 0.5% test compound; format: in vivo; conditions: for Serum cholesterol / Serum neutral fats: ratio relative to the non-treated control group
Experimental: as §1, §2, §3

[3] = Example 1: general conditions and autopsical finding; format: in vivo, CDF1 male mice; conditions: 0.5% in feed, 2 weeks
Experimental: as §1, §2, §3

[4] = Example 4: serum lipid concentration of mice fed 0.5% test compound for 14 days; format: in vivo, CDF1 male mice; conditions: 0.5% in feed; for Total cholesterol / Triglyceride: mean (n=6) ± standard error
Experimental: (§4) 5-Campesten-3-one was prepared from campesterol (>97%, Tama Biochemical Industry, Ltd.). 4-Sitosten-3,6-dione was prepared from β-sitosterol (>65%, Tokyo Chemical Industry Co., Ltd.) and obtained as a mixture of 24-ethyl compound and 24-methyl compound (2:1). 5-Stigmasten-3-one was prepared from stigmasterol (>94%, Tokyo Chemical Industry, Co., Ltd.). As experimental animals, six CDF1 male mice (5-week old, Charles River Japan Inc.) were used in each experimental group. Modified AIN (Oriental Yeast Co.) was used as basic feed and mixed with 0.5% of each test compound to prepare test feeds. The animals were allowed to feed with the test food ad libitum for 14 days. Measurements of body weights and observations of general conditions of the animals were carried out twice a week, and the animals were subjected to autopsy and their bloods were collected. Serum lipid analysis was conducted by using a clinical test kit based on the enzymatic method (Wako Pure Chemicals Industries Co., Ltd.). Significances of the resulting values were examined by the one-way analysis of variance with pairwise comparison (ANOVA) according to the Bonferroni method. Other conditions were the same as those described in Example 1.

[5] = Example 4: body weight and body fat of mice fed 0.5% test compound for 14 days; format: in vivo, CDF1 male mice; conditions: 0.5% in feed; for Intraperitoneal fat: mean (n=6) ± standard error; for Decrease of body fat: versus non-treated mice
Experimental: as §4

[6] = Example 2: body weight, feed intake, feed efficiency and intraperitoneal fat of mice fed 0.5% test compound; format: in vivo, CDF1 male mice; conditions: 0.5% in feed; for Feed efficiency (body weight gain/feed intake): 14 days; for Intraperitoneal fat: mean (n=6) ± standard error; for Body weight gain: total for 14 days; for Decrease of intraperitoneal fat: versus control
Source text: (§5) As 24-alkylcholesten-3-ones, (1) 4-sitosten-3-one, (2) 6α-hydroxy-4-sitosten-3-one, and (3) 6-hydroxy-4-sitosten-3-one (α:β=2.6:1) were synthesized by using β-sitosterol (Tokyo Chemical Industries Co., Ltd.). The content ratio of 24-ethyl and 24-methyl compounds in the synthesized product was 6.5:3.5. As experimental animals, six CDF1 male mice (5-week old, Charles River Japan Inc.) were used in each experimental group. A purified feed (Modified AIN, Oriental Yeast Co.) was used as a basic feed and mixed with 0.5% test compounds to prepare test feeds. The animals were allowed to feed and water ad libitum. The animals were weighed and observed to examine general conditions twice a week. The animals were subjected to autopsy after the end of the feeding, and their bloods were collected. Lipid concentrations in the separated serums were measured by using a clinical test kit based on the enzyme method (Wako Pure Chemicals Industries Co., Ltd.). Significances of the resulting experimental values were examined by the variance analysis. The other experimental conditions were the same as in Example 1.

[7] = Example 2: serum (plasma) lipid concentrations of mice fed 0.5% test compound; format: in vivo, CDF1 male mice; conditions: 0.5% in feed; for Free fatty acid / HDL-cholesterol / Phospholipid / Total cholesterol / Triglyceride: mean (n=6) ± standard error
Source text: as §5

[8] = metabolite of the test compound detected in serum, CDF1 mice
[9] = male, CDF1, mouse, in vivo, 2 weeks

## CC(C)CCC[C@@H](C)[C@H]1CC[C@H]2[C@@H]3C[C@@H](Br)C4=CC(=O)CC[C@]4(C)[C@H]3CC[C@]12C [6 β-Bromo-4-cholesten-3-one, 6β-bromo-4-cholesten-3-one]
[1]
  Body weight gain: 48%
  Intraperitoneal fat: 62%
[2]; CDF1 mice
  Serum cholesterol: 98%
  Serum neutral fats: 89%

## CC(C)CCC[C@@H](C)[C@H]1CC[C@H]2[C@@H]3CC[C@@H]4CC(=O)CC[C@]4(C)[C@H]3CC[C@]12C [5 β-Cholestan-3-one, 5β-cholestan-3-one]
[1]
  Body weight gain: 51%
  Intraperitoneal fat: 71%
[2]; [8]
  Serum metabolite: Cholestanol
[2]; metabolite of the test compound detected in serum, CDF1 mice, listed as 5β-cholestan-3-one
  Serum metabolite: cholestanol or coprostanol
[2]; CDF1 mice
  Serum cholesterol: 75%
  Serum neutral fats: 70%

## CC(C)CCC[C@@H](C)[C@H]1CC[C@H]2[C@@H]3CC(=O)C4=CC(=O)CC[C@]4(C)[C@H]3CC[C@]12C [4-Cholestene-3,6-dione]
[1]
  Body weight gain: −62%
  Intraperitoneal fat: 23%
[2]; [9]
  Serum metabolite: 0
[2]; CDF1 mice
  Serum cholesterol: 60%
  Serum neutral fats: 36%

## CC(C)CCC[C@@H](C)[C@H]1CC[C@H]2[C@@H]3CCC4=CC(=O)CC[C@]4(C)[C@H]3CC[C@]12C [4-Cholesten-3-one, 4-cholesten-3-one]
[1]
  Body weight gain: 72^a %
  Intraperitoneal fat: 74%
[2]; 0.5% in feed, 2 weeks, n=6
  Neutral fats (serum), mean ± standard error: 197.7 ± 28.1 mg/dL
  Total cholesterol (serum), mean ± standard error: 99.2 ± 5.8 mg/dL
[2]; [8]
  Serum metabolite: Cholestanol
[2]; metabolite of the test compound detected in serum, CDF1 mice, listed as 4-cholesten-3-one
  Serum metabolite: cholestanol
[2]; CDF1 mice
  Serum cholesterol: 62%
  Serum neutral fats: 54%
[3]
  Spleens at autopsy: enlargements

## CC[C@H](CC[C@@H](C)[C@H]1CC[C@H]2[C@@H]3CC=C4CC(=O)CC[C@]4(C)[C@H]3CC[C@]12C)C(C)C [5-Stigmasten-3-one]
[4]
  Decrease of serum total cholesterol concentration: ~49%
  Decrease of serum triglyceride concentration: ~68%
  Total cholesterol: 97.9 ± 3.4 mg/dL
  Triglyceride: 82.0 ± 6.7 mg/dL
[5]
  Intraperitoneal fat: 745.7 ± 46.7 mg

## CC[C@H](CC[C@@H](C)[C@H]1CC[C@H]2[C@@H]3CCC4=CC(=O)CC[C@]4(C)[C@H]3CC[C@]12C)C(C)C [4-Sitosten-3-one, 4-sitosten-3-one]
[6]
  Feed efficiency (change): only slight changes
  Suppression of body weight (FIG. 3): no significant suppression
  Feed efficiency (body weight gain/feed intake): 0.087
  Intraperitoneal fat: 841.5 ± 69.0 mg
  Body weight gain: 3.71 g/mouse
  Decrease of intraperitoneal fat: not signilficant
[7]
  Free fatty acid: 0.92 ± 0.03 mEq/dl
  HDL-cholesterol: 42.4 ± 6.36 mg/dL
  Phospholipid: 271.0 ± 9.5 mg/dL
  Total cholesterol: 151.4 ± 5.7 mg/dL
  Triglyceride: 130.9 ± 4.9 mg/dL

## CC(C)CCC[C@@H](C)[C@H]1CC[C@H]2[C@@H]3CC=C4CC(=O)CC[C@]4(C)[C@H]3CC[C@]12C [5-Cholesten-3-one]
[1]
  Body weight gain: −16%
  Intraperitoneal fat: 37%
[2]; [9]
  Serum metabolite: 0
[2]; CDF1 mice
  Serum cholesterol: 68%
  Serum neutral fats: 30%

## CC(C)[C@H](C)CC[C@@H](C)[C@H]1CC[C@H]2[C@@H]3CC=C4CC(=O)CC[C@]4(C)[C@H]3CC[C@]12C [5-Campesten-3-one, 5-campesten-3-one (24-methylcholest-5-en-3-one)]
[4]
  Decrease of serum total cholesterol concentration: about 34%
  Decrease of serum triglyceride concentration: about 45%
  Total cholesterol: 125.8 ± 4.0 mg/dL
  Triglyceride: 138.9 ± 18.7 mg/dL
[5]
  Effect on the increase of body weight (FIG. 6): Significant inhibitory effects; also recorded: remarkably suppressed
  Intraperitoneal fat: 86.4 ± 19.9 mg
  Decrease of body fat: about 90%

## CC(C)CCC[C@@H](C)[C@H]1CC[C@H]2[C@@H]3C=CC4=CC(=O)CC[C@]4(C)[C@H]3CC[C@]12C [Colesta-4,6-dien-3-one]
[1]
  Body weight gain: 59%
  Intraperitoneal fat: 69%
[2]; CDF1 mice
  Serum cholesterol: 63%
  Serum neutral fats: 60%

## CC[C@H](CC[C@@H](C)[C@H]1CC[C@H]2[C@@H]3CC(O)C4=CC(=O)CC[C@]4(C)[C@H]3CC[C@]12C)C(C)C (stereo partly drawn) [6-Hydroxy-4-sitosten-3-one (α:β = 2.6:1), 6-hydroxy-4-sitosten-3-one (α:β=2.6:1)]
[6]
  Feed efficiency (change): remarkable decrease
  Suppression of body weight (FIG. 3): potent suppressing effects
  Feed efficiency (body weight gain/feed intake): 0.044
  Intraperitoneal fat: 481.8 ± 51.9 mg
  Body weight gain: 1.82 g/mouse
  Decrease of intraperitoneal fat: 50%
[7]
  Total cholesterol and phospholipid concentrations in plasma: significantly decreased
  Free fatty acid: 0.77 ± 0.03 mEq/dl
  HDL-cholesterol: 45.0 ± 5.8 mg/dL
  Phospholipid: 211.9 ± 5.1 mg/dL
  Total cholesterol: 133.3 ± 5.7 mg/dL
  Triglyceride: 76.5 ± 5.2 mg/dL

## CC(C)CCC[C@@H](C)[C@H]1CC[C@H]2[C@@H]3CC(O)C4=CC(=O)CC[C@]4(C)[C@H]3CC[C@]12C (some centres unmarked) [6-Hydroxy-4-cholesten-3-one]
[1]
  Body weight gain: 50%
  Intraperitoneal fat: 63%
[2]; [9]
  Serum metabolite: 0
[2]; CDF1 mice
  Serum cholesterol: 80%
  Serum neutral fats: 47%

## CC[C@H](CC[C@@H](C)[C@H]1CC[C@H]2[C@@H]3CC(=O)C4=CC(=O)CC[C@]4(C)[C@H]3CC[C@]12C)C(C)C [4-Sitosten-3,6-dione]
[4]
  Decrease of serum total cholesterol concentration: ~18%
  Decrease of serum triglyceride concentration: ~66%
  Total cholesterol: 156.3 ± 6.4 mg/dL
  Triglyceride: 85.8 ± 9.2 mg/dL
[5]
  Effect on the increase of body weight (FIG. 6): Significant inhibitory effects
  Intraperitoneal fat: 472.7 ± 37.7 mg
  Decrease of body fat: ~40%

## CC[C@H](CC[C@@H](C)[C@H]1CC[C@H]2[C@@H]3C[C@H](O)C4=CC(=O)CC[C@]4(C)[C@H]3CC[C@]12C)C(C)C [6α-Hydroxy-4-sitosten-3-one, 6α-hydroxy-4-sitosten-3-one]
[6]
  Feed efficiency (change): remarkable decrease
  Suppression of body weight (FIG. 3): potent suppressing effects
  Feed efficiency (body weight gain/feed intake): 0.022
  Intraperitoneal fat: 369.8 ± 22.5 mg
  Body weight gain: 0.86 g/mouse
  Decrease of intraperitoneal fat: 60%
[7]
  Total cholesterol and phospholipid concentrations in plasma: significantly decreased
  Free fatty acid: 0.69 ± 0.04 mEq/dl
  HDL-cholesterol: 36.7 ± 4.7 mg/dL
  Phospholipid: 209.6 ± 7.8 mg/dL
  Total cholesterol: 142.5 ± 5.1 mg/dL
  Triglyceride: 66.8 ± 3.5 mg/dL

Source: patent publication US6531462B2, “Medicament for treating obesity and improving lipid metabolism” (priority 1997, dated 2003)
